# Key:
# cocklebur = assay: Test B pre/postemergence cocklebur; assay type: in vivo, Xanthium strumarium
# Outline: (§1)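 Herbicidal effect was estimated by eye on a ten-point control scale after plants spent twelve to sixteen days in a greenhouse following soil or foliar treatment. Foliar sprays targeted plants at one to four leaves; all doses were formulated in a non-phytotoxic solvent with surfactant.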
# sugar beet = assay: Test B pre/postemergence sugar beet; assay type: in vivo, Beta vulgaris
# Outline: as §1
# crabgrass = assay: Test B pre/postemergence crabgrass; assay type: in vivo, Digitaria sanguinalis
# Outline: as §1
# wild oat = assay: Test B pre/postemergence wild oat; assay type: in vivo, Avena fatua
# Outline: as §1
# bedstraw = assay: Test B pre/postemergence bedstraw; assay type: in vivo, Galium aparine
# Outline: as §1
# corn = assay: Test B pre/postemergence corn; assay type: in vivo, Zea mays
# Outline: as §1
# blackgrass = assay: Test B pre/postemergence blackgrass; assay type: in vivo, Alopecurus myosuroides
# Outline: as §1
# purple nutsedge = assay: Test B pre/postemergence purple nutsedge; assay type: in vivo, Cyperus rotundus
# Outline: as §1
# velvetleaf = assay: Test B pre/postemergence velvetleaf; assay type: in vivo, Abutilon theophrasti
# Outline: as §1
# giant foxtail = assay: Test B pre/postemergence giant foxtail; assay type: in vivo, Setaria faberii
# Outline: as §1
# pigweed = assay: Test B pre/postemergence pigweed; assay type: in vivo, Amaranthus retroflexus
# Outline: as §1
# soybean = assay: Test B pre/postemergence soybean; assay type: in vivo, Glycine max
# Outline: as §1
# morningglory = assay: Test B pre/postemergence morningglory; assay type: in vivo, Ipomoea hederacea
# Outline: as §1
# wheat = assay: Test B pre/postemergence wheat; assay type: in vivo, Triticum aestivum
# Outline: as §1
# rape = assay: Test B pre/postemergence rape; assay type: in vivo, Brassica napus
# Outline: as §1
# surinam grass = assay: Test B pre/postemergence surinam grass; assay type: in vivo, Brachiaria decumbens
# Outline: as §1
# [1] = Postemergence, Rate 62 g/ha, scale of 0 to 10, 0 is no effect, 10 is complete control
# [2] = Postemergence, Rate 125 g/ha, scale 0 to 10, 0 is no effect, 10 is complete control
# [3] = Postemergence, Rate 500 g/ha, scale 0 to 10, 0 is no effect, 10 is complete control
# [4] = Preemergence, Rate 125 g/ha, scale 0 to 10, 0 is no effect, 10 is complete control
# [5] = Preemergence, Rate 500 g/ha, scale of 0 to 10 where 0 is no effect and 10 is complete control
# [6] = Rate 250 g/ha, Postemergence, scale of 0 to 10 where 0 is no effect and 10 is complete control
# [7] = Preemergence, Rate 62 g/ha, scale 0 to 10 (0 no effect, 10 complete control)
structure (smiles),measurement,setting,value
COC(=O)CCCn1c(=O)on(C(=O)N(c2ccc(Cl)cc2)C(C)C)c1=O [Compound 543],Cocklebur plant response rating,cocklebur; [1],0
same,Cocklebur plant response rating,cocklebur; [2],0
same,"Plant response rating, Cocklebur",cocklebur; [3],1
same,Cocklebur plant response rating,cocklebur; [4],0
same,Cocklebur plant response rating (0 to 10 scale),"cocklebur; Preemergence, Rate 250 g/ha",0
same,Cocklebur plant response rating,cocklebur; [5],10
same,"Plant response rating, Cocklebur",cocklebur; [6],0
same,Sugarbeets plant response rating,sugar beet; [1],0
same,Sugarbeets plant response rating,sugar beet; [2],0
same,"Plant response rating, Sugarbeets",sugar beet; [3],3
same,Sugarbeets plant response rating,sugar beet; [7],4
same,Sugarbeets plant response rating,sugar beet; [4],5
same,Sugarbeets plant response rating (0 to 10 scale),"sugar beet; Preemergence, Rate 250 g/ha",6
same,"Plant response rating, Sugarbeets",sugar beet; [6],2
same,Crabgrass plant response rating,crabgrass; [1],0
same,"Plant response rating, Crabgrass",crabgrass; [3],7
same,Crabgrass plant response rating,crabgrass; [7],4
same,Crabgrass plant response rating,crabgrass; [4],4
same,Crabgrass plant response rating (0 to 10 scale),"crabgrass; Preemergence, Rate 250 g/ha",6
same,"Plant response rating, Crabgrass",crabgrass; [6],3
same,Wild oats plant response rating,wild oat; [1],0
same,Wild oats plant response rating,wild oat; [2],0
same,"Plant response rating, Wild oats",wild oat; [3],3
same,Wild oats plant response rating,wild oat; [7],0
same,Wild oats plant response rating,wild oat; [4],0
same,Wild oats plant response rating (0 to 10 scale),"wild oat; Preemergence, Rate 250 g/ha",0
same,Wild oats plant response rating,wild oat; [5],0
same,"Plant response rating, Wild oats",wild oat; [6],0
same,Bedstraw plant response rating,bedstraw; [1],0
same,Bedstraw plant response rating,bedstraw; [2],0
same,"Plant response rating, Bedstraw",bedstraw; [3],2
same,Bedstraw plant response rating,bedstraw; [4],0
same,Bedstraw plant response rating (0 to 10 scale),"bedstraw; Preemergence, Rate 250 g/ha",0
same,Bedstraw plant response rating,bedstraw; [5],0
same,Corn plant response rating,corn; [1],0
same,Corn plant response rating,corn; [2],0
same,"Plant response rating, Corn",corn; [3],0
same,Corn plant response rating,corn; [7],0
same,Corn plant response rating,corn; [4],0
same,Corn plant response rating (0 to 10 scale),"corn; Preemergence, Rate 250 g/ha",0
same,Corn plant response rating,corn; [5],0
same,"Plant response rating, Corn",corn; [6],0
same,Blackgrass plant response rating,blackgrass; [1],0
same,Blackgrass plant response rating,blackgrass; [2],0
same,"Plant response rating, Blackgrass",blackgrass; [3],2
same,Blackgrass plant response rating,blackgrass; [7],0
same,Blackgrass plant response rating,blackgrass; [4],0
same,Blackgrass plant response rating (0 to 10 scale),"blackgrass; Preemergence, Rate 250 g/ha",0
same,Blackgrass plant response rating,blackgrass; [5],2
same,"Plant response rating, Blackgrass",blackgrass; [6],0
same,Nutsedge plant response rating,purple nutsedge; [1],0
same,Nutsedge plant response rating,purple nutsedge; [2],0
same,"Plant response rating, Nutsedge",purple nutsedge; [3],0
same,Nutsedge plant response rating,purple nutsedge; [7],0
same,Nutsedge plant response rating,purple nutsedge; [4],0
same,Nutsedge plant response rating (0 to 10 scale),"purple nutsedge; Preemergence, Rate 250 g/ha",0
same,Nutsedge plant response rating,purple nutsedge; [5],8
same,"Plant response rating, Nutsedge",purple nutsedge; [6],0
same,Velvetleaf plant response rating,velvetleaf; [1],0
same,Velvetleaf plant response rating,velvetleaf; [2],0
same,"Plant response rating, Velvetleaf",velvetleaf; [3],3
same,Velvetleaf plant response rating,velvetleaf; [7],0
same,Velvetleaf plant response rating,velvetleaf; [4],0
same,Velvetleaf plant response rating (0 to 10 scale),"velvetleaf; Preemergence, Rate 250 g/ha",0
same,Velvetleaf plant response rating,velvetleaf; [5],0
same,"Plant response rating, Velvetleaf",velvetleaf; [6],0
same,Giant foxtail plant response rating,giant foxtail; [1],0
same,Giant foxtail plant response rating,giant foxtail; [2],0
same,"Plant response rating, Giant foxtail",giant foxtail; [3],3
same,Giant foxtail plant response rating,giant foxtail; [7],3
same,Giant foxtail plant response rating,giant foxtail; [4],3
same,Giant foxtail plant response rating (0 to 10 scale),"giant foxtail; Preemergence, Rate 250 g/ha",9
same,Giant foxtail plant response rating,giant foxtail; [5],9
same,"Plant response rating, Giant foxtail",giant foxtail; [6],0
same,Redroot pigweed plant response rating,pigweed; [1],0
same,Redroot pigweed plant response rating,pigweed; [2],0
same,"Plant response rating, Redroot pigweed",pigweed; [3],0
same,Redroot pigweed plant response rating,pigweed; [7],7
same,Redroot pigweed plant response rating,pigweed; [4],7
same,Redroot pigweed plant response rating (0 to 10 scale),"pigweed; Preemergence, Rate 250 g/ha",9
same,"Plant response rating, Redroot pigweed",pigweed; [6],0
same,Soybean plant response rating,soybean; [1],0
same,Soybean plant response rating,soybean; [2],2
same,"Plant response rating, Soybean",soybean; [3],2
same,Soybean plant response rating,soybean; [7],0
same,Soybean plant response rating,soybean; [4],0
same,Soybean plant response rating (0 to 10 scale),"soybean; Preemergence, Rate 250 g/ha",2
same,Soybean plant response rating,soybean; [5],2
same,"Plant response rating, Soybean",soybean; [6],2
same,Morningglory plant response rating,morningglory; [1],1
same,Morningglory plant response rating,morningglory; [2],2
same,"Plant response rating, Morningglory",morningglory; [3],7
same,Morningglory plant response rating,morningglory; [7],0
same,Morningglory plant response rating,morningglory; [4],0
same,Morningglory plant response rating (0 to 10 scale),"morningglory; Preemergence, Rate 250 g/ha",0
same,Morningglory plant response rating,morningglory; [5],0
same,"Plant response rating, Morningglory",morningglory; [6],4
same,Wheat plant response rating,wheat; [1],0
same,Wheat plant response rating,wheat; [2],0
same,"Plant response rating, Wheat",wheat; [3],0
same,Wheat plant response rating,wheat; [7],0
same,Wheat plant response rating,wheat; [4],0
same,Wheat plant response rating (0 to 10 scale),"wheat; Preemergence, Rate 250 g/ha",0
same,Wheat plant response rating,wheat; [5],0
same,"Plant response rating, Wheat",wheat; [6],0
same,Rape plant response rating,rape; [1],0
same,Rape plant response rating,rape; [2],0
same,"Plant response rating, Rape",rape; [3],0
same,Rape plant response rating,rape; [7],0
same,Rape plant response rating,rape; [4],0
same,Rape plant response rating (0 to 10 scale),"rape; Preemergence, Rate 250 g/ha",0
same,Rape plant response rating,rape; [5],0
same,"Plant response rating, Rape",rape; [6],0
same,B. signalgrass plant response rating,surinam grass; [1],0
same,B. signalgrass plant response rating,surinam grass; [2],0
same,"Plant response rating, B. signalgrass",surinam grass; [3],3
same,B. signalgrass plant response rating,surinam grass; [7],0
same,B. signalgrass plant response rating,surinam grass; [4],4
same,"B. signalgrass plant response rating (0 to 10 scale, 0 is no effect, 10 is complete control)","surinam grass; Preemergence, Rate 250 g/ha",4
same,B. signalgrass plant response rating,surinam grass; [5],6
same,"Plant response rating, B. signalgrass",surinam grass; [6],3
